Laboratory results as given in paper PMC5053523, “In Vitro Antibacterial Activity of Rhodanine Derivatives against Pathogenic Clinical Isolates” (PLoS ONE, 2016).
Read-outs that look alike come from different tables or passages of the source.

Legend:
[1] = test system: Salmonella Typhimurium; test: MIC with/without sub-MIC colistin, Salmonella Typhimurium; assay type: cell-based
Procedure, shortened: (§1)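 Sub-MIC colistin or PMBN added to broth MIC tests of rhodanines and reference antibiotics against Gram-negative strains; AcrAB efflux-deficient E. coli SM1411ΔacrAB also tested.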

[2] = test system: Escherichia coli O157:H7; test: MIC with/without sub-MIC colistin, Escherichia coli O157:H7; assay type: cell-based
Procedure, shortened: as §1

[3] = test system: Bacillus anthracis; test: microbe, parasite or virus in culture; assay type: cell-based
[4] = test system: Acinetobacter baumannii; test: MIC with/without sub-MIC colistin, Acinetobacter baumannii; assay type: cell-based
Procedure, shortened: as §1

[5] = test system: Mycobacterium smegmatis; test: Broth microdilution MIC/MBC, Mycobacterium smegmatis; assay type: cell-based; conditions: Mycolicibacterium smegmatis, ATCC14468, M. Smegmatis ATCC 14468
[6] = test system: Escherichia coli Δ acrAB; test: MIC against E. coli 1411 and AcrAB efflux pump deficient E. coli SM1411Δ acrAB; assay type: cell-based
Procedure, shortened: as §1

[7] = test system: Escherichia coli O157:H7; test: MIC with/without PMBN, Escherichia coli O157:H7; assay type: cell-based
Procedure, shortened: as §1

[8] = test system: Bacillus Strains; test: Broth microdilution MIC50/MIC90 and MIC range, Bacillus strains panel; assay type: cell-based, Bacillus spp.; conditions: 10 Bacillus strains
Excerpt: The broth microdilution technique was used, followed by subculturing on agar plates that were rhodanine—free. […] The MICs reported represent the lowest concentration of each compound necessary to inhibit bacterial growth and the MBCs represent the lowest concentration required to reduce the initial bacterial inoculum by ≥ 99.9%.

[9] = test system: MRSA USA300; test: MIC against MRSA USA300 with and without 4% human serum albumin; assay type: cell-based, Staphylococcus aureus; conditions: Staphylococcus aureus, read-out: MIC against MRSA USA300
Procedure, shortened: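 MIC measured in tryptic soy broth spiked with 4% HSA and without it, using CLSI broth microdilution on MRSA USA300. Value reported is the lowest concentration preventing bacterial growth.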

[10] = test system: B. cereus; test: Broth microdilution MIC/MBC, B. cereus; assay type: cell-based; conditions: Bacillus cereus; for MBC: read-out: MBC; for MIC: read-out: MIC
Excerpt: The broth microdilution technique was used, followed by subculturing on agar plates that were rhodanine—free.

[11] = test system: Candida albicans; test: MIC against Candida albicans; assay type: cell-based; conditions: table prints none, read-out: MIC
[12] = test system: Acinetobacter baumannii; test: Broth microdilution MIC, Acinetobacter baumannii; assay type: cell-based
[13] = test system: Klebsiella pneumoniae; test: MIC with/without PMBN, Klebsiella pneumoniae; assay type: cell-based
Procedure, shortened: as §1

[14] = test system: vancomycin resistant enterococci (VRE); test: Broth microdilution MIC50/MIC90, VRE panel; assay type: cell-based; conditions: 10 VRE strains; for MIC90: read-out: MIC 90
[15] = NRS201, B. cereus NRS 201 NR-2488

O=C(O)[C@H](Cc1ccccc1)N1C(=O)/C(=C/c2cccc(-c3ccc(Cl)c(Cl)c3)c2)SC1=S [Rh 2]
2 µM: MBC ([3]; Bacillus anthracis AMES35) | MIC ([3]; Bacillus anthracis AMES35) | MBC ([3]; Bacillus anthracis UM23) | MIC ([3]; Bacillus anthracis UM23) | MBC ([3]; Bacillus anthracis Weybridge) | MIC ([3]; Bacillus anthracis Weybridge) | MIC50 [8] | MBC ([10]; B. cereus BAG1X1-1 NR-28575) | MIC ([10]; B. cereus BAG1X1-1 NR-28575) | MIC ([10]; B. cereus BAG1X2-1 NR-28578) | MBC ([10]; B. cereus VD014 NR-22141) | MIC ([10]; B. cereus VD014 NR-22141) | MBC ([10]; B. cereus VD148 NR-22150) | MIC ([10]; B. cereus VD148 NR-22150)
>64 µM: MIC ([1]; Salmonella Typhimurium ATCC 700720, colistin (+) […], read-out: MIC) | MIC ([2]; Escherichia coli O157:H7 ATCC 35150, colistin (+) […], read-out: MIC) | MIC ([2]; Escherichia coli O157:H7 ATCC 700728, colistin (+) […], read-out: MIC) | MIC ([4]; Acinetobacter baumannii ATCC BAA747, colistin (+) […], read-out: MIC) | MIC ([4]; Acinetobacter baumannii ATCC BAA19606, colistin (+) […], read-out: MIC) | MIC ([7]; Escherichia coli O157:H7 ATCC 700728, PMBN (+) 4 μg/mL, read-out: MIC) | MIC ([13]; Klebsiella pneumoniae ATCC BAA 1706, PMBN (+) 4 μg/mL) | MIC ([13]; Klebsiella pneumoniae ATCC BAA 2146, PMBN (+) 4 μg/mL)
> 256 µM: MIC ([7]; Escherichia coli, ATCC35150)
> 64 µM: MIC ([6]; E.coli 1411) | MIC ([6]; E.coli 1411 SM (Δ acrAB, AcrAB efflux pump deficient)) | MIC ([9]; 24 h, Media TSB + 4% HSA) | MIC ([11]; ATCC10231, C. albicans ATCC 10231, unit from abstract) | MIC ([11]; C. albicans NR 29434, unit from abstract) | MIC ([11]; C. albicans NR 29435, unit from abstract) | MIC ([11]; C. albicans NR29437, unit from abstract) | MIC ([11]; C. albicans NR29438, unit from abstract) | MIC ([11]; C. albicans NR 29446, unit from abstract) | MIC ([11]; C. albicans NR 29448, unit from abstract) | MIC ([11]; C. albicans NR 29449, unit from abstract) | MIC ([11]; C. albicans NR 29453, unit from abstract) | MIC ([11]; C. albicans NR 294436, unit from abstract)
> 128 µM: MIC ([1]; Salmonella enterica, ATCC 700720 / TYPHIMURIUM) | MIC ([2]; Escherichia coli, ATCC35150) | MIC ([2]; Escherichia coli, ATCC700728) | MIC ([4]; Acinetobacter baumannii, ATCCBAA747) | MIC ([4]; Acinetobacter baumannii, ATCCBAA19606) | MIC ([7]; Escherichia coli, ATCC700728) | MIC ([12]; ATCC13345) | MIC ([12]; ATCC17786) | MIC ([13]; Klebsiella pneumoniae, BAA1706) | MIC ([13]; Klebsiella pneumoniae, BAA2146)
4 µM: MIC ([5]; read-out: MIC) | MIC90 [8] | MIC ([9]; Media TSB) | MBC ([10]; B. cereus BAG1O-2 NR-28582) | MIC ([10]; B. cereus BAG1O-2 NR-28582) | MBC ([10]; B. cereus BAG1X2-1 NR-28578) | MBC ([10]; B. cereus G9241 NR-9564) | MIC ([10]; B. cereus G9241 NR-9564) | MBC ([10]; B. cereus VD115 NR-22148) | MIC ([10]; B. cereus VD115 NR-22148) | MBC [10, 15] | MIC [10, 15] | MIC90 [14] | MIC50 ([14]; Enterococcus, read-out: MIC 50)
8 µM: MBC ([5]; read-out: MBC) | MIC ([7]; Escherichia coli O157:H7 ATCC 35150, PMBN (+) 4 μg/mL, read-out: MIC) | MIC90 ([14]; Enterococcus, VRE)
